Holding throughout (format): biochemical
The target of one test is T1, MMP-1 (Homo sapiens, UniProt P03956).
T1 construct: purchased R&D Systems 901-MP
T1 sequence (P03956 100-469): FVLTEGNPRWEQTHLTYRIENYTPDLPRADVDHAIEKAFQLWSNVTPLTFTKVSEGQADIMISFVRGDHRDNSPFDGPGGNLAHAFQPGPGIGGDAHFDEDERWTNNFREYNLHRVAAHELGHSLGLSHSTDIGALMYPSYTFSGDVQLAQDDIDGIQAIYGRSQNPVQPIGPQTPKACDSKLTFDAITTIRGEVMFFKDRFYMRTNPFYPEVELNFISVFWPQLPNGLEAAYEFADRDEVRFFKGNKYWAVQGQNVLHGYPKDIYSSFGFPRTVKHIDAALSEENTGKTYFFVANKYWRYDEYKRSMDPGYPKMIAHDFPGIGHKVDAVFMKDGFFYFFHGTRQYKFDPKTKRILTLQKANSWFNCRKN
Description: In vitro MMP-1 inhibition test. The source says: (§1) The MMP-mediated amidolytic cleavage of a suitable peptide substrate leads to an increase in fluorescent light here too. The signal intensity of the fluorescent light is directly proportional to the enzyme activity. The active concentration of a test compound at which half the enzyme is inhibited (50% signal intensity of the fluorescent light) is reported as the […].
(§2) Recombinant MMP-1 (from R&D Systems, 901-MP) is chemically activated in accordance with the manufacturer's instructions using APMA. 1 μl of the test compound to be analysed (as a solution in DMSO, suitable concentrations, for example, 1 nM to 30 μM) is pipetted into 24 μl of activated enzyme (final concentration, for example, 2 nM) in reaction buffer (50 mM Tris/HCl pH 7.5, 10 mM CaCl2, 150 mM NaCl, 0.05% Brij®-35) in a white 384-hole microtiter plate (MTP). The enzymatic reaction is started by adding the intramolecularly quenched Mca-Pro-Leu-Gly-Leu-Dpa(Dnp)-Ala-Arg-NH2 substrate (final concentration, for example, 10 μM; R&D Systems, ES-001), so as to result in a total test volume of 50 μl. The course of the MMP-1 reaction is measured by measuring the fluorescence intensity (excitation 320 nm, emission 410 nm) over a suitable period of time (for example over 120 min at a temperature of 32° C.).

Another test deals with T2, mouse MMP-8 (Mus musculus, UniProt O70138).
T2 construct: purchased R&D Systems 2904-MP
T2 sequence (O70138 101-465): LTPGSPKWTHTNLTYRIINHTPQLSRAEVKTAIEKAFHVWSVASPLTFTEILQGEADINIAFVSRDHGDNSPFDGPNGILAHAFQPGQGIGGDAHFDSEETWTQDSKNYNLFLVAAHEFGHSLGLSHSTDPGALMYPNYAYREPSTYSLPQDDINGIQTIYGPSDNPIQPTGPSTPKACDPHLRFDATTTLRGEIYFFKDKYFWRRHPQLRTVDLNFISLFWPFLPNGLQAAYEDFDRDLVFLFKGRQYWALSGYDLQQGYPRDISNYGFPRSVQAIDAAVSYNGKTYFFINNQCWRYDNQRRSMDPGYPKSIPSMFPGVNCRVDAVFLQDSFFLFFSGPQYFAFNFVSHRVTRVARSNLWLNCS
Put plainly: In vitro mouse MMP-8 inhibition test.

The target in a further test is T3, MMP-13 (Homo sapiens, UniProt P45452).
T3 construct: purchased R&D Systems 511-MP
Put plainly: In vitro MMP-13 inhibition test.
From the text: as §1
as §2, with “Recombinant MMP-13” for “Recombinant MMP-1”, “Systems, 511-MP)” for “Systems, 901-MP)”, “example, 0.1” for “example, 2”, “the MMP-13” for “the MMP-1”

The target in the next test is T4, MMP-16 (Homo sapiens, UniProt P51512).
T4 construct: purchased R&D Systems 1785-MP
T4 sequence (P51512 120-607): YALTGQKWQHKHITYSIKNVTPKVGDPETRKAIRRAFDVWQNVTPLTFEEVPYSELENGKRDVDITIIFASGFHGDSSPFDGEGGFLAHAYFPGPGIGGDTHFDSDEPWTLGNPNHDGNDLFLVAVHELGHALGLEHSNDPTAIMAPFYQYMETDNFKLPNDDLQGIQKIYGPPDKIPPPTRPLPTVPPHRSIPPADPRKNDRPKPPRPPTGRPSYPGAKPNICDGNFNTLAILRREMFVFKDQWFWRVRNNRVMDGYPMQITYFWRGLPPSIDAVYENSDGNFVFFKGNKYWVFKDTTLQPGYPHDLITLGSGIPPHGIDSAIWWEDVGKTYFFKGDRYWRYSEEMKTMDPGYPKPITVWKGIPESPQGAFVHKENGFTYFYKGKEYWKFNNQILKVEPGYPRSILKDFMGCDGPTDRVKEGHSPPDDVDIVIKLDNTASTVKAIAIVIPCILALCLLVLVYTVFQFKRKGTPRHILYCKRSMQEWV
Put plainly: In vitro MMP-16 inhibition test.
From the text: as §1
Recombinant MMP-16 (from R&D Systems, 1785-MP) is enzymatically activated in accordance with the manufacturer's instructions using recombinant furin (from R&D Systems, 1503-SE). 1 μl of the test compound to be analysed (as a solution in DMSO, suitable concentrations e.g. 1 nM to 30 μM) is pipetted into 24 μl of activated enzyme (final concentration e.g. 1 nM) in reaction buffer (50 mM Tris/HCl pH 7.5, 10 mM CaCl2, 150 mM NaCl, 0.05% Brij®-35) in a white 384-hole microtiter plate (MTP). The enzymatic reaction is started by adding the intramolecularly quenched Mca-Lys-Pro-Leu-Gly-Leu-Dpa(Dnp)-Ala-Arg-NH2 substrate (final concentration, for example, 5 μM; R&D Systems, ES-010), so as to result in a total test volume of 50 μl. The course of the MMP-16 reaction is measured by measuring the fluorescence intensity (excitation 320 nm, emission 410 nm) over a suitable period of time (for example over 120 min at a temperature of 32° C.).

The target in test [1] is T5, human macrophage elastase (HME/hMMP-12) (Homo sapiens, UniProt P39900).
T5 construct: 0.5 nM HME; purchased R&D Systems 917-MP
T5 sequence (P39900 106-470): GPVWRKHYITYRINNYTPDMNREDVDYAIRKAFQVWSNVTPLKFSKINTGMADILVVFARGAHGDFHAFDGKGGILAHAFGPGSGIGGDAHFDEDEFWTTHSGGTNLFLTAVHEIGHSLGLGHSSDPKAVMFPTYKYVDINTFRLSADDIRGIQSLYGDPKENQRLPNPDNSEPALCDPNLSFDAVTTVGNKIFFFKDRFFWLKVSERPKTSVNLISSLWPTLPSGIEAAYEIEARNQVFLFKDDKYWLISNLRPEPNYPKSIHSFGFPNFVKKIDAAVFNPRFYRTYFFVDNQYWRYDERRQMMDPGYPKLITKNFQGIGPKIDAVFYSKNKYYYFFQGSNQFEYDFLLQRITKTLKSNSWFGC
Description: In vitro HME inhibition test in the presence of serum albumin (BSA) in the reaction buffer. As to conditions: presence of serum albumin (BSA) 2% (w/w). The source says: This test corresponds to the standard HME inhibition test described above, except using a modified reaction buffer. This reaction buffer additionally contains bovine serum albumin (BSA, fatty acid-free, A6003, from Sigma-Aldrich) of final concentration 2% (w/w), which corresponds to about half the physiological serum albumin content.

The target of another test is T6, MMP-14 (Homo sapiens, UniProt P50281).
T6 construct: purchased R&D Systems 918-MP
Put plainly: In vitro MMP-14 inhibition test.
From the text: as §1
Recombinant MMP-14 (from R&D Systems, 918-MP) is enzymatically activated in accordance with the manufacturer's instructions using recombinant furin (from R&D Systems, 1503-SE). 1 μl of the test compound to be analysed (as a solution in DMSO, suitable concentrations e.g. 1 nM to 30 μM) is pipetted into 24 μl of activated enzyme (final concentration e.g. 0.5 nM) in reaction buffer (50 mM Tris/HCl pH 7.5, 10 mM CaCl2, 150 mM NaCl, 0.05% Brij®-35) in a white 384-hole microtiter plate (MTP). The enzymatic reaction is started by adding the intramolecularly quenched Mca-Lys-Pro-Leu-Gly-Leu-Dpa(Dnp)-Ala-Arg-NH2 substrate (final concentration, for example, 5 μM; R&D Systems, ES-010), so as to result in a total test volume of 50 μl. The course of the MMP-14 reaction is measured by measuring the fluorescence intensity (excitation 320 nm, emission 410 nm) over a suitable period of time (for example over 120 min at a temperature of 32° C.).

Where only a bound is given, the exact number is not on record here.

In general, IC50 refers to the point on the concentration scale where inhibition reaches its midpoint.

Consider `Cc1ccc2nnn(C[C@@H]3CC[C@H](C(=O)c4ccc(OCCC5CCOCC5)cc4)[C@H]3C(=O)O)c(=O)c2c1` (racemic) [Example 19, (+/−)-(1RS,2SR,5RS)-2-[(6-Methyl-4-oxo-1,2,3-benzotriazin-3(4H)-yl)methyl]-5-{4-[2-(letrahydro-2H-pyran-4-yl)ethoxy]benzoyl}cyclopentanecarboxylic acid], for which the IC50 was above 40000 nM at MMP-1; 150 nM on mouse MMP-8; 590 nM on MMP-13; 2500 nM at MMP-16; 32 nM in test [1]; 2700 nM on MMP-14.

As for `O=C(O)[C@H]1[C@H](Cn2nnc3ccccc3c2=O)CC[C@@H]1C(=O)c1ccc(OCCC2CCOCC2)cc1` (stereo in doubt) [Example 4, (+/−)-(1RS,2SR,5RS)-2-[(4-Oxo-1,2,3-benzotriazin-3(4H)-yl)methyl]-5-{4-[2-(tetrahydro-2H-pyran-4-yl)ethoxy]benzoyl}cyclopentanecarboxylic acid], the IC50 is above 40000 nM at MMP-1; 370 nM at mouse MMP-8; 460 nM on MMP-13; 7100 nM against MMP-16; 37.3 nM in test [1]; 2700 nM at MMP-14.

As for `O=C(O)[C@H]1[C@H](Cn2nnc3ccc(C(F)(F)F)cc3c2=O)CC[C@@H]1C(=O)c1ccc(OCC2CCOCC2)cc1` (racemic) [Example 7, (+/−)-(1RS,2SR,5RS)-2-{[4-Oxo-6-(trifluoromethyl)-1,2,3-benzotriazin-3(4H)-yl]methyl}-5-[4-(tetrahydro-2H-pyran-4-ylmethoxy)benzoyl]cyclopentanecarboxylic acid], the 50% inhibitory concentration (IC50) against MMP-1 was determined as 6500 nM; on MMP-13, 140 nM; against MMP-16 it was 830 nM; against MMP-14 it was 170 nM.

Take `O=C(O)[C@@H]1[C@@H](Cn2nnc3ccc(C(F)(F)F)cc3c2=O)CC[C@H]1C(=O)c1ccc(OCCC2CCOCC2)cc1` (single isomer, unassigned) [Example 11, (+)-(1RS,2SR,5RS)-2-{[4-Oxo-6-(trifluoromethyl)-1,2,3-benzotriazin-3(4H)-yl]methyl}-5-{4-[2-(tetrahydro-2H-pyran-4-yl)ethoxy]benzoyl}cyclopentanecarboxylic acid]: the concentration for half-maximal inhibition (IC50) against MMP-1 came out at 27000 nM; at mouse MMP-8, 34 nM; against MMP-13 it was 470 nM; at MMP-16, 3800 nM; in test [1], 39.2 nM; at MMP-14, 1200 nM.

For the compound `O=C(O)[C@H]1[C@H](Cn2nnc3ccccc3c2=O)CC[C@@H]1C(=O)c1ccc(OCC2CCOCC2)cc1` (stereo in doubt) [Example 1, (+/−)-(1RS,2SR,5RS)-2-[(4-Oxo-1,2,3-benzotriazin-3(4H)-yl)methyl]-5-[4-(tetrahydro-2H-pyran-4-ylmethoxy)benzoyl]cyclopentanecarboxylic acid], the IC50 at MMP-1 was found to be 26000 nM; on mouse MMP-8, 40 nM; on MMP-13 it was 110 nM; at MMP-16 it was 1500 nM; in test [1] it was 6.45 nM; against MMP-14 it was 160 nM.

As to `O=C(O)[C@@H]1[C@@H](Cn2nnc3ccccc3c2=O)CC[C@H]1C(=O)c1ccc(OCC2CCOCC2)cc1` (stereo in doubt) [Example 2, (+)-(1RS,2SR,5RS)-2-[(4-Oxo-1,2,3-benzotriazin-3(4H)-yl)methyl]-5-[4-(tetrahydro-2H-pyran-4-ylmethoxy)benzoyl]cyclopentanecarboxylic acid], the IC50 against MMP-1 was found to be 10000 nM; against mouse MMP-8, 21 nM; against MMP-13, 49 nM; on MMP-16, 550 nM; in test [1], 6.71 nM; against MMP-14, 99 nM.

For `O=C(O)[C@H]1[C@H](Cn2nnc3ccc(C(F)(F)F)cc3c2=O)CC[C@@H]1C(=O)c1ccc(OCCC2CCOCC2)cc1` (stereo in doubt) [Example 10, (+/−)-(1RS ,2S R,5RS)-2-{[4-Oxo-6-(trifluoromethyl)-1,2,3-benzotriazin-3(4H)-yl]methyl}-5-{4-[2-(tetrahydro-2H-pyran-4-yl)ethoxy]benzoyl}cyclopentanecarboxylic acid], the half-inhibitory concentration (IC50) against MMP-1 stood at 8800 nM; against mouse MMP-8 it was 14 nM; at MMP-13, 230 nM; against MMP-16, 1800 nM; at MMP-14 it was 600 nM.

Consider “(+)-(1RS,2SR,5RS)-2-{[4-Oxo-6-(trifluoromethyl)-1,2,3-benzotriazin-3(4H)-yl]methyl}-5-[4-(tetra-hydro-2H-pyran-4-ylmethoxy)benzoyl]cyclopentanecarboxylic acid [Example 8]”, for which the concentration for half-maximal inhibition (IC50) at MMP-1 was 1800 nM; on MMP-13, 51 nM; at MMP-16, 280 nM; in test [1], 2.45 nM; against MMP-14 it was 100 nM.

In the case of `O=C(O)[C@@H]1[C@@H](Cn2nnc3ccc(C(F)(F)F)cc3c2=O)CC[C@H]1C(=O)c1ccc(SCC2CCOCC2)cc1` (single isomer, unassigned) [Example 15, (+)-(1RS,2SR,5RS)-2-{[4-Oxo-6-(trifluoromethyl)-1,2,3-benzotriazin-3(4H)-yl]methyl}-5-{4-[(tetrahydro-2H-pyran-4-ylmethyl)sulphanyl]benzoyl}cyclopentanecarboxylic acid], the IC50 against MMP-1 turned out to be 11000 nM; against MMP-13, 220 nM; against MMP-16, 760 nM; in test [1] it was 16 nM; on MMP-14, 150 nM.

The values are drawn from patent US20170114049A1, “2,5-DISUBSTITUTED CYCLOPENTANE CARBOXYLIC ACIDS FOR THE TREATMENT OF RESPIRATORY TRACT DISEASES” (BAYER PHARMA AKTIENGESELLSCHAFT, priority 2014, published 2017).
